Results taken from paper PMC4306947, “Synthesis and Antiproliferative Activity of Thiazolyl-bis-pyrrolo[2,3-b]pyridines and Indolyl-thiazolyl-pyrrolo[2,3-c]pyridines, Nortopsentin Analogues” (Marine Drugs, 2015).

Columns and labels:
CCRF-CEM = assay: NCI-60 in vitro tumor cell screen, CCRF-CEM; format: cell-based; conditions: Homo sapiens, Leukemia
Method: (§1) All the synthesized thiazoles 1a–l, 2a–j, 3a–f and 4a–f were evaluated by the National Cancer Institute (Bethesda MD) for cytotoxicity against the NCI-60 cell line panel using standard protocols. Initially, all derivatives were tested at a single dose (10^−5 M) on the full panel of approximately 60 human tumor cell lines derived from 9 human cancer cell types, that have been grouped in disease sub-panels including leukemia, non-small-cell lung, colon, central nervous system (CNS), melanoma, ovarian, renal, prostate and breast cancers (data not shown). Compounds 1k and 4c were further selected for full evaluation at five concentration levels (10^−4–10^−8 M).
(§2) The antitumor activity of compounds 1k and 4c was given by three parameters for each cell line: GI50 (GI50 is the molar concentration of the compound that inhibits 50% net cell growth), TGI (TGI is the molar concentration of the compound leading to total inhibition of net cell growth), and LC50 (LC50 is the molar concentration of the compound that induces 50% net cell death). The average values of mean graph midpoint (MG_MID) were calculated for each of these parameters.

MOLT-4 = assay: NCI-60 in vitro tumor cell screen, MOLT-4; format: cell-based; conditions: Homo sapiens; MOLT-4, Leukemia
Method: as §1, §2

A549/ATCC = assay: NCI-60 in vitro tumor cell screen, A549/ATCC; format: cell-based; conditions: Homo sapiens, Non-Small Cell Lung Cancer
Method: as §1, §2

HOP-62 = assay: NCI-60 in vitro tumor cell screen, HOP-62; format: cell-based; conditions: Homo sapiens; HOP-62, Non-Small Cell Lung Cancer
Method: as §1, §2

NCI-H23 = assay: NCI-60 in vitro tumor cell screen, NCI-H23; format: cell-based; conditions: Homo sapiens; NCI-H23, Non-Small Cell Lung Cancer
Method: as §1, §2

HCC-2998 = assay: NCI-60 in vitro tumor cell screen, HCC-2998; format: cell-based; conditions: Homo sapiens; HCC-2998, Colon Cancer
Method: as §1, §2

HCT-15 = assay: NCI-60 in vitro tumor cell screen, HCT-15; format: cell-based; conditions: Homo sapiens; HCT-15, Colon Cancer
Method: as §1, §2

LOX IMVI = assay: NCI-60 in vitro tumor cell screen, LOX IMVI; format: cell-based; conditions: Homo sapiens, Melanoma
Method: as §1, §2

SK-MEL-5 = assay: NCI-60 in vitro tumor cell screen, SK-MEL-5; format: cell-based; conditions: Homo sapiens; SK-MEL-5, Melanoma
Method: as §1, §2

UACC-62 = assay: NCI-60 in vitro tumor cell screen, UACC-62; format: cell-based; conditions: Homo sapiens; UACC-62, Melanoma
Method: as §1, §2

IGROV1 = assay: NCI-60 in vitro tumor cell screen, IGROV1; format: cell-based; conditions: Homo sapiens, IGROV-1; IGROV1, Ovarian Cancer
Method: as §1, §2

OVCAR-3 = assay: NCI-60 in vitro tumor cell screen, OVCAR-3; format: cell-based; conditions: Homo sapiens; OVCAR-3, Ovarian Cancer
Method: as §1, §2

A498 = assay: NCI-60 in vitro tumor cell screen, A498; format: cell-based; conditions: Homo sapiens; A498, Renal Cancer
Method: as §1, §2

ACHN = assay: NCI-60 in vitro tumor cell screen, ACHN; format: cell-based; conditions: Homo sapiens, Renal Cancer
Method: as §1, §2

CAKI-1 = assay: NCI-60 in vitro tumor cell screen, CAKI-1; format: cell-based; conditions: Homo sapiens; CAKI-1, Renal Cancer
Method: as §1, §2

RXF393 = assay: NCI-60 in vitro tumor cell screen, RXF393; format: cell-based; conditions: Homo sapiens, RXF 393; RXF393, Renal Cancer
Method: as §1, §2

TK-10 = assay: NCI-60 in vitro tumor cell screen, TK-10; format: cell-based; conditions: Homo sapiens; TK-10, Renal Cancer
Method: as §1, §2

DU-145 = assay: NCI-60 in vitro tumor cell screen, DU-145; format: cell-based; conditions: Homo sapiens; DU-145, Prostate Cancer
Method: as §1, §2

MCF7 = assay: NCI-60 in vitro tumor cell screen, MCF7; format: cell-based; conditions: Homo sapiens; MCF7, Breast Cancer
Method: as §1, §2

T-47D = assay: NCI-60 in vitro tumor cell screen, T-47D; format: cell-based; conditions: Homo sapiens, T47D, Breast Cancer
Method: as §1, §2

MDA-MB-468 = assay: NCI-60 in vitro tumor cell screen, MDA-MB-468; format: cell-based; conditions: Homo sapiens; MDA-MB-468, Breast Cancer
Method: as §1, §2

[1] = test system: intestinal normal-like differentiated Caco-2 cells; assay: MTT viability assay, differentiated Caco-2 cells, 24 h; format: cell-based, human; conditions: range 5 to 100 μM
Method: Nortopsentin analogues, prepared as described above, were dissolved in dimethyl sulfoxide (DMSO) and then diluted in culture medium to have a DMSO concentration not exceeding 0.1%. HCT-116 and Caco-2 cell lines were purchased from American Type Culture Collection, Rockville, MD, USA and DMEM supplemented with […], […] bovine serum (FBS), penicillin (100 U/mL), streptomycin (100 μg/mL) and gentamicin (5 μg/mL). Cells were maintained in log phase by seeding twice a week at a density of 3 × 10^8 cells/L in humidified 5% CO2 atmosphere, at 37 °C. In all experiments, HCT-116 cells were made quiescent through overnight incubation before treatment with tested compounds or vehicle alone (control cells), while Caco-2 cells were treated 15 days after confluence, at which time the cells are differentiated in normal intestinal-like cells. […]
Cytotoxic activity of the nortopsentin derivatives 1k and 4c was determined by the colorimetric assay based on the reduction of […] (MTT) to purple formazan by mitochondrial dehydrogenases. […] Cells were incubated 2 h at 37 °C, then medium was discarded by centrifugation, formazan blue formed in the cells dissolved in DMSO, and absorbance measured at 570 nm in a microplate reader (Bio-RAD, Hercules, CA, USA). […] GI50 was calculated by the curve of percent viability vs. concentration. […]

HCT-116 cells = assay: Cell cycle analysis by flow cytometry (propidium iodide); format: cell-based, human; conditions: 24 h, concentrations above and below GI50
Method: Cell cycle stage was analyzed by flow cytometry. HCT-116 cells (5.0 × 10^4 cells/cm^2) were seeded in triplicate in 24-wells culture plates. After an overnight incubation, the cells were washed with fresh medium and incubated with compounds 1k and 4c in RPMI for 24 h. Then cells were harvested by trypsinization. Aliquots of 1 × 10^6 cells were washed with PBS and incubated in the dark in a PBS solution containing 20 μg/mL propidium iodide (PI) and 200 μg/mL RNase, for 30 min, at room temperature. Then samples of at least 1.0 × 10^4 cells were subjected to fluorescence-activated cell sorting (FACS) analysis by Epics XL™ flow cytometer using Expo32 software (Beckman Coulter, Fullerton, CA, USA).

Row | Structure (SMILES) | GI50 (CCRF-CEM) | GI50 (MOLT-4) | GI50 (A549/ATCC) | GI50 (HOP-62) | GI50 (NCI-H23) | GI50 (HCC-2998) | GI50 (HCT-15) | GI50 (LOX IMVI) | GI50 (SK-MEL-5) | GI50 (UACC-62) | GI50 (IGROV1) | GI50 (OVCAR-3) | GI50 (A498) | GI50 (ACHN) | GI50 (CAKI-1) | GI50 (RXF393) | GI50 (TK-10) | GI50 (DU-145) | GI50 (MCF7) | GI50 (T-47D) | other results
1 | Cn1cc(-c2csc(-c3c[nH]c4ncccc34)n2)c2cc(Br)cnc21 [Compound 1k, 5-Bromo-1-methyl-3-[2-(1H-pyrrolo[2,3-b]pyridin-3-yl)-1,3-thiazol-4-yl]-1H-pyrrolo[2,3-b]pyridine] | 6810 nM | > 100000 nM | 2590 nM | 2390 nM | 2800 nM | > 100000 nM | 13700 nM | 4260 nM | 2050 nM | 3470 nM | 2210 nM | 2910 nM | 10900 nM | 2350 nM | 1560 nM | 2050 nM | 3770 nM | 3510 nM | 6770 nM | 1800 nM | GI50 (MDA-MB-468): 810 nM; effect on cell viability [1]: did not affect the differentiated Caco-2 cell viability; alteration of cell cycle distribution (HCT-116 cells): dose-dependent accumulation of cells in G2/M phase
2 | Clc1nccc2c(-c3csc(-c4c[nH]c5ccc(Br)cc45)n3)c[nH]c12 [Compound 4c, 3-[2-(5-Bromo-1H-indol-3-yl)-1,3-thiazol-4-yl]-7-chloro-1H-pyrrolo[2,3-c]pyridine] | 3160 nM | 3020 nM | 3830 nM | 2110 nM | 2420 nM | 2220 nM | 1400 nM | 1630 nM | 2610 nM | 2190 nM | 2510 nM | 3450 nM | 1560 nM | 2020 nM | 1960 nM | 1480 nM | 4160 nM | 1760 nM | 2200 nM | 3120 nM | GI50 (MDA-MB-468): 1180 nM; effect on cell viability [1]: did not affect the differentiated Caco-2 cell viability; alteration of cell cycle distribution (HCT-116 cells): dose-dependent accumulation of cells in G1 phase
